From patent US20050031540A1, “Visco dye” (priority 2001, published 2005)

Assays:
[1] = test system: anterior capsule of the crystalline lens; assay: Vital dye staining of the anterior lens capsule to visualise the CCC; conditions: absence of a red fundus reflex
From the text: It is possible to use a number of vital dyes already known today, but also such which may become available in the future as the visualising agent. […] These include azophlozin, basic blue, Bismarck brown, basis red, bengal red, brilliant cresyl blue, eosin, fluorescein, gentian violet, indocyanine green, Janus green, methylene green, methylene blue, neutral red and others.

[2] = test system: corneal endothelial cells; conditions: earlier use to stain corneas prior to corneal transplants; cited from earlier work

Molecule: CN(C)c1ccc(C(=C2C=CC(=[N+](C)C)C=C2)c2ccc(N(C)C)cc2)cc1 [gentian violet]
- staining of the anterior capsule sufficient to visualise the CCC ([1]; dye 2%): stained the anterior capsule sufficiently to visualise the CCC

Molecule: CN(C)c1ccc2nc3ccc(=[N+](C)C)cc-3sc2c1 [methylene blue]
- staining of the anterior capsule sufficient to visualise the CCC ([1]; dye 5%): stained the anterior capsule sufficiently to visualise the CCC

Molecule: Cc1cc(-c2ccc(/N=N/c3c(S(=O)(=O)O)cc4cc(S(=O)(=O)O)cc(N)c4c3O)c(C)c2)ccc1/N=N/c1c(S(=O)(=O)O)cc2cc(S(=O)(=O)O)cc(N)c2c1O [trypan blue]
- tolerance of corneal endothelium to vital staining, endothelial cell counts [2]: without a reduction in endothelial cell counts
- staining of the anterior capsule sufficient to visualise the CCC ([1]; dye 0.1%): stained the anterior capsule sufficiently to visualise the CCC

Molecule: brilliant cresyl blue
- staining of the anterior capsule sufficient to visualise the CCC ([1]; dye 1%): stained the anterior capsule sufficiently to visualise the CCC
